Results as given in US20240358693A1, “METHODS OF TREATING PAIN” (Aisa Pharma, Inc., priority 2023, published 2024).

Tested on: participants with SSc-RP
Test: Frequency of weekly RP attacks (all attacks; primary efficacy endpoint)
Type: in vivo, human
Conditions: for Weekly RP Attacks, Q3 / Weekly RP Attacks Change from Baseline, Max / Weekly RP Attacks Change from Baseline, Mean / Weekly RP Attacks Change from Baseline, Median / Weekly RP Attacks Change from Baseline, Min / Weekly RP Attacks Change from Baseline, Q1 / Weekly RP Attacks Change from Baseline, Q3 / Weekly RP Attacks Percent Change from Baseline, Max / Weekly RP Attacks Percent Change from Baseline, Mean / Weekly RP Attacks Percent Change from Baseline, Median / Weekly RP Attacks Percent Change from Baseline, Min / Weekly RP Attacks Percent Change from Baseline, Q1 / Weekly RP Attacks Percent Change from Baseline, Q3 / Weekly RP Attacks, Max / Weekly RP Attacks, Mean / Weekly RP Attacks, Median / Weekly RP Attacks, Min / Weekly RP Attacks, Q1 / Weekly RP Attacks Change from Baseline, Mean (SD) / Weekly RP Attacks Percent Change from Baseline, Mean (SD) / Weekly RP Attacks, Mean (SD): all attacks, tadalafil 5 mg daily
From the text: Percent change from baseline evaluation for frequency of weekly RP attacks were or will be used as the primary efficacy variable. The sponsor-developed participant-informed diary will be used to record data. Frequency of weekly RP attacks is defined as the total number of RP attacks divided by the number of days with available diary data within the last 7 days of each dosing period then multiplied by 7. Total number of RP attacks during the last 7 days of screening period divided by the number of days with available data then multiplied by 7 will be used as baseline for the analysis of all periods. The variable will be calculated as follows:
Percentage change={(weekly RP attacks for the last 7 days of each dosing period−Baseline weekly RP attacks)/Baseline weekly RP attacks}*100%.
Absolute change=weekly RP attacks for the last 7 days of each dosing period−Baseline weekly RP attacks
Percent change from baseline evaluation for frequency of weekly RP attacks was and will be the primary efficacy endpoint. Frequency of weekly RP attacks is defined as the total number of RP attacks divided by the number of days with available diary data within the last 7 days of each dosing period then multiplied by 7. Total number of RP attacks during the last 7 days of screening period divided by the number of days with available data then multiplied by 7 will be used as baseline for the analysis of all periods.
Percent change from baseline evaluation for frequency of weekly RP attacks were the primary efficacy endpoint. Data collected in the last 7 days of each dosing period were used for this analysis. Screening assessments were used as baseline for the analysis of all periods. No multiple comparison adjustment were used to control alpha for the multiple comparisons. Mixed effects model were used for analysis of the primary endpoint according to the crossover design. Other efficacy endpoints of continuous variables were analyzed using similar methodology. For nominal data, chi-square tests were applied. Generalized Estimating Equations method were used, as appropriate, for adjusting for potential confounding factors. In addition, the final analysis assessed whether in this study of severe Raynaud's disease participants, the minimally important difference, previously concluded of 14-15 points on the 100 point RCS scale had been achieved in the cilnidipine dose group. It also recorded the percentage of participants achieving a PASS (34 point difference from baseline on a 0-100 VAS) in each treatment group.

[1] = by baseline RCS, first subgroup, cilnidipine 10 mg
[2] = by baseline RCS, first subgroup, cilnidipine 20 mg
[3] = by baseline RCS, first subgroup, pooled cilnidipine 10 mg and 20 mg
[4] = pooled cilnidipine 10 mg and 20 mg

Q: What does the source list for `COCCOC(=O)C1=C(C)NC(C)=C(C(=O)OC/C=C/c2ccccc2)C1c1cccc([N+](=O)[O-])c1` (stereo not shown) [Cilnidipine, cilnidipine]?
A: Weekly RP Attacks, Q3 (excluding outliers, pooled cilnidipine 10 mg and 20 mg): 23.00; Weekly RP Attacks Change from Baseline, Max [1]: −9.0, −9.0; Weekly RP Attacks Change from Baseline, Mean [1]: −9.00; Weekly RP Attacks Change from Baseline, Median [1]: −9.00; Weekly RP Attacks Change from Baseline, Min [1]: −9.0, −9.0; Weekly RP Attacks Change from Baseline, Q1 [1]: −9.00, −9.00; Weekly RP Attacks Change from Baseline, Q3 [1]: −9.00, −9.00; Weekly RP Attacks Percent Change from Baseline, Max [1]: −28.1, −28.1%; Weekly RP Attacks Percent Change from Baseline, Mean [1]: −28.13%; Weekly RP Attacks Percent Change from Baseline, Median [1]: −28.13%; Weekly RP Attacks Percent Change from Baseline, Min [1]: −28.1, −28.1%; Weekly RP Attacks Percent Change from Baseline, Q1 [1]: −28.13, −28.13%; Weekly RP Attacks Percent Change from Baseline, Q3 [1]: −28.13, −28.13%; Weekly RP Attacks, Max [1]: 23.0, 23.0; Weekly RP Attacks, Mean [1]: 23.00; Weekly RP Attacks, Median [1]: 23.00; Weekly RP Attacks, Min [1]: 23.0, 23.0; Weekly RP Attacks, Q1 [1]: 23.00, 23.00; Weekly RP Attacks, Q3 [1]: 23.00, 23.00; Weekly RP Attacks Change from Baseline, Max [2]: −4.3; Weekly RP Attacks Change from Baseline, Mean [2]: −6.67; Weekly RP Attacks Change from Baseline, Median [2]: −6.67; Weekly RP Attacks Change from Baseline, Min [2]: −9.0; Weekly RP Attacks Change from Baseline, Q1 [2]: −9.00; Weekly RP Attacks Change from Baseline, Q3 [2]: −4.33; Weekly RP Attacks Percent Change from Baseline, Max [2]: −45.0%; Weekly RP Attacks Percent Change from Baseline, Mean [2]: −45.71%; Weekly RP Attacks Percent Change from Baseline, Median [2]: −45.71%; Weekly RP Attacks Percent Change from Baseline, Min [2]: −46.4%; Weekly RP Attacks Percent Change from Baseline, Q1 [2]: −46.43%; Weekly RP Attacks Percent Change from Baseline, Q3 [2]: −45.00%; Weekly RP Attacks, Max [2]: 11.0; Weekly RP Attacks, Mean [2]: 8.00; Weekly RP Attacks, Median [2]: 8.00; Weekly RP Attacks, Min [2]: 5.0; Weekly RP Attacks, Q1 [2]: 5.00; Weekly RP Attacks, Q3 [2]: 11.00; Weekly RP Attacks Change from Baseline, Max [3]: −4.3; Weekly RP Attacks Change from Baseline, Mean [3]: −7.44; Weekly RP Attacks Change from Baseline, Median [3]: −9.00; Weekly RP Attacks Change from Baseline, Min [3]: −9.0; Weekly RP Attacks Change from Baseline, Q1 [3]: −9.00; Weekly RP Attacks Change from Baseline, Q3 [3]: −4.33; Weekly RP Attacks Percent Change from Baseline, Max [3]: −28.1%; Weekly RP Attacks Percent Change from Baseline, Mean [3]: −39.85%; Weekly RP Attacks Percent Change from Baseline, Median [3]: −45.00%; Weekly RP Attacks Percent Change from Baseline, Min [3]: −46.4%; Weekly RP Attacks Percent Change from Baseline, Q1 [3]: −46.43%; Weekly RP Attacks Percent Change from Baseline, Q3 [3]: −28.13%; Weekly RP Attacks, Max [3]: 23.0; Weekly RP Attacks, Mean [3]: 13.00; Weekly RP Attacks, Median [3]: 11.00; Weekly RP Attacks, Min [3]: 5.0; Weekly RP Attacks, Q1 [3]: 5.00; Weekly RP Attacks, Q3 [3]: 23.00; Weekly RP Attacks Change from Baseline, Max (cilnidipine 10 mg): −9.0, −9.0; Weekly RP Attacks Change from Baseline, Mean (SD) (cilnidipine 10 mg): −9.00; Weekly RP Attacks Change from Baseline, Median (cilnidipine 10 mg): −9.00; Weekly RP Attacks Change from Baseline, Min (cilnidipine 10 mg): −9.0, −9.0; Weekly RP Attacks Change from Baseline, Q1 (cilnidipine 10 mg): −9.00, −9.00; Weekly RP Attacks Change from Baseline, Q3 (cilnidipine 10 mg): −9.00, −9.00; Weekly RP Attacks Percent Change from Baseline, Max (cilnidipine 10 mg): −28.1, −28.1%; Weekly RP Attacks Percent Change from Baseline, Mean (SD) (cilnidipine 10 mg): −28.13%; Weekly RP Attacks Percent Change from Baseline, Median (cilnidipine 10 mg): −28.13%; Weekly RP Attacks Percent Change from Baseline, Min (cilnidipine 10 mg): −28.1, −28.1%; Weekly RP Attacks Percent Change from Baseline, Q1 (cilnidipine 10 mg): −28.13, −28.13%; Weekly RP Attacks Percent Change from Baseline, Q3 (cilnidipine 10 mg): −28.13, −28.13%; Weekly RP Attacks, Max (cilnidipine 10 mg): 23.0, 23.0; Weekly RP Attacks, Mean (SD) (cilnidipine 10 mg): 23.00; Weekly RP Attacks, Median (cilnidipine 10 mg): 23.00; Weekly RP Attacks, Min (cilnidipine 10 mg): 23.0, 23.0; Weekly RP Attacks, Q1 (cilnidipine 10 mg): 23.00, 23.00; Weekly RP Attacks, Q3 (cilnidipine 10 mg): 23.00, 23.00; Weekly RP Attacks Change from Baseline, Max (cilnidipine 20 mg): −4.3; Weekly RP Attacks Change from Baseline, Mean (SD) (cilnidipine 20 mg): −6.67 (3.300); Weekly RP Attacks Change from Baseline, Median (cilnidipine 20 mg): −6.67; Weekly RP Attacks Change from Baseline, Min (cilnidipine 20 mg): −9.0; Weekly RP Attacks Change from Baseline, Q1 (cilnidipine 20 mg): −9.00; Weekly RP Attacks Change from Baseline, Q3 (cilnidipine 20 mg): −4.33; Weekly RP Attacks Percent Change from Baseline, Max (cilnidipine 20 mg): −45.0%; Weekly RP Attacks Percent Change from Baseline, Mean (SD) (cilnidipine 20 mg): −45.71 (1.010) Percent; Weekly RP Attacks Percent Change from Baseline, Median (cilnidipine 20 mg): −45.71%; Weekly RP Attacks Percent Change from Baseline, Min (cilnidipine 20 mg): −46.4%; Weekly RP Attacks Percent Change from Baseline, Q1 (cilnidipine 20 mg): −46.43%; Weekly RP Attacks Percent Change from Baseline, Q3 (cilnidipine 20 mg): −45.00%; Weekly RP Attacks, Max (cilnidipine 20 mg): 11.0; Weekly RP Attacks, Mean (SD) (cilnidipine 20 mg): 8.00 (4.243); Weekly RP Attacks, Median (cilnidipine 20 mg): 8.00; Weekly RP Attacks, Min (cilnidipine 20 mg): 5.0; Weekly RP Attacks, Q1 (cilnidipine 20 mg): 5.00; Weekly RP Attacks, Q3 (cilnidipine 20 mg): 11.00; Weekly RP Attacks Change from Baseline, Max [4]: −4.3; Weekly RP Attacks Change from Baseline, Mean (SD) [4]: −7.44 (2.694); Weekly RP Attacks Change from Baseline, Median [4]: −9.00; Weekly RP Attacks Change from Baseline, Min [4]: −9.0; Weekly RP Attacks Change from Baseline, Q1 [4]: −9.00; Weekly RP Attacks Change from Baseline, Q3 [4]: −4.33; Weekly RP Attacks Percent Change from Baseline, Max [4]: −28.1%; Weekly RP Attacks Percent Change from Baseline, Mean (SD) [4]: −39.85 (10.180) Percent; Weekly RP Attacks Percent Change from Baseline, Median [4]: −45.00%; Weekly RP Attacks Percent Change from Baseline, Min [4]: −46.4%; Weekly RP Attacks Percent Change from Baseline, Q1 [4]: −46.43%; Weekly RP Attacks Percent Change from Baseline, Q3 [4]: −28.13%; Weekly RP Attacks, Max [4]: 23.0; Weekly RP Attacks, Mean (SD) [4]: 13.00 (9.165); Weekly RP Attacks, Median [4]: 11.00; Weekly RP Attacks, Min [4]: 5.0; Weekly RP Attacks, Q1 [4]: 5.00; Weekly RP Attacks, Q3 [4]: 23.00; reduction in weekly attack frequency (primary endpoint) (cilnidipine 20 mg, 19% with placebo): 43%; reduction in weekly attack frequency, typical attacks (pooled cilnidipine monotherapy or cilnidipine plus tadalafil treated patients (n=7)): −31 to −40%; Attacks reduced (summary of data (Table S)): 43%_vs 23% with
